Mass density and refractive index data for three compounds are collected here from the NIST ThermoML archive (doi:10.1021/acs.jced.6b00949).

Numbers after ± are expanded uncertainties.

The conditions of data set [1]: 293.15 K; 101.3 kPa; Liquid; Vibrating tube method.
Data set [2] can be described thus: refractive index (Na D-line) (dimensionless). To be noted: 293.15 K; 101.33 kPa; Liquid; Standard Abbe refractometry.

The term mass density denotes the mass of a sample divided by its volume. By refractive index is commonly meant the speed of light in vacuum divided by its phase velocity in the sample. On to `CC(=O)OCC(C)C` [2-methylpropyl ethanoate], for which the mass density in data set [1] is 873.4 ± 1.6 kg/m3. Moreover, the refractive index in data set [2] was determined as 1.3902 ± 0.0025.

`CCO` [ethanol]: the mass density in data set [1] came out at 789.2 ± 1.6 kg/m3. Also, the refractive index in data set [2] was 1.3616 ± 0.0025.

`CO` [methanol]: the mass density in data set [1] is on record as 792.1 ± 1.6 kg/m3. In addition, in data set [2], the refractive index is given as 1.3285 ± 0.0025.
